Assay results reported in patent US6653303B1, “Cycloalkyl, lactam, lactone and related compounds, pharmaceutical compositions comprising same, and methods for inhibiting β-amyloid peptide release and/or its synthesis by use of such compounds” (Athena Neurosciences, Inc., priority 1996, dated 2003).

Row | SMILES | melting point
1 | C[C@H](NC(=O)Cc1cc(F)cc(F)c1)C(=O)NC1C(=O)NC(Cc2ccccc2)c2ccccc21 (stereo partly drawn) [Example 5-35, 4-(N′-(3,5-Difluorophenylacetyl)-L-alaninyl)amino-1-benzyl-1,2,3,4-tetrahydroisoquinolin-3-one] | 106 to 107 °C
2 | C[C@H](NC(=O)C(O)c1cc(F)cc(F)c1)C(=O)NC1N=C(c2ccccc2)c2ccccc2N(C)C1=O (single isomer, unassigned) | 240 to 241 °C
3 | C[C@H](NC(=O)Cc1cc(F)cc(F)c1)C(=O)NC1C(=O)N(CCc2ccccc2)Cc2ccccc21 (stereo partly drawn) [Example 5-13, 4-(N′-(3,5-Difluorophenylacetyl)-L-alaninyl)amino-2-phenethyl-1,2,3,4-tetrahydroisoquinolin-3-one] | 75 to 76 °C
4 | C[C@H](NC(=O)C(=O)c1cc(F)cc(F)c1)C(=O)NC1N=C(c2ccccc2)c2ccccc2N(C)C1=O (some centres unmarked) | 128 to 129 °C
5 | CC(C)CN1C(=O)C(NC(=O)[C@H](C)NC(=O)Cc2cc(F)cc(F)c2)C(=O)N(CC(C)C)c2ccccc21 [Example 8-152, 3-[N′-(3,5-Difluorophenylacetyl)-L-alaninyl]amino-2,4-dioxo-1,5-bis-(2-methylpropyl)-2,3,4,5-tetrahydro-1H-1,5-benzodiazepine] | 197 to 198 °C
6 | C[C@H](NC(=O)Cc1cc(F)cc(F)c1)C(=O)NC1C(=O)NC(c2ccccc2)c2ccccc21 (single isomer, unassigned) [Example 5-10, 4-(N′-(3,5-Difluorophenylacetyl)-L-alaninyl)amino-1-phenyl-1,2,3,4tetrahydroisoquinolin-3-one] | 200 to 205 °C
7 | C[C@H](NC(=O)Cc1cc(F)cc(F)c1)C(=O)NC1C(=O)NCc2ccccc21 (stereo partly drawn) [Example 5-7, 4-(N′-(3,5-Difluorophenylacetyl)-L-alaninyl)amino-1,2,3,4-tetrahydroisoquinolin-3-one] | 243 to 244 °C
8 | C[C@H](NC(=O)Cc1cc(F)cc(F)c1)C(=O)NC1C(=O)NCc2cc(-c3ccccc3)ccc21 (stereo partly drawn) [Example 5-16, 4-(N′-(3,5-Difluorophenylacetyl)-L-alaninyl)amino-7-phenyl-1,2,3,4-tetrahydroisoquinolin-3-one] | > 240 °C (dec.)
9 | CC(C)[C@H](NC(=O)Cc1cc(F)cc(F)c1)C(=O)NC1N=C(c2ccccc2)c2ccccc2N(C)C1=O (some centres unmarked) | 228 to 229 °C
10 | CCN1C(=O)[C@@H](NC(=O)[C@H](C)NC(=O)Cc2cc(F)cc(F)c2)COc2ccccc21 [Example 6-11, 3-(S)-(N′-(3,5-Difluorophenylacetyl)-L-alaninyl)amino-1-ethyl-5-oxa-1,3,4,5-tetrahydro-2H-1-benzazepin-2-one] | 188 to 191 °C
11 | C[C@H](NC(=O)Cc1cc(F)cc(F)c1)C(=O)NC1N=C(c2ccccc2)c2ccccc2N(CC2CC2)C1=O (some centres unmarked) | 203 to 205 °C
12 | C[C@H](NC(=O)Cc1cc(F)cc(F)c1)C(=O)NC1C(=O)NCc2cc(Cc3ccccc3)ccc21 (stereo partly drawn) [Example 5-34, 4-(N′-(3,5-Difluorophenylacetyl)-L-alaninyl)amino-7-benzyl-1,2,3,4-tetrahydroisoquinolin-3-one] | 159 to 166 °C
13 | CC(C)COC(=O)[C@H](C)NC(=O)CC1CCCC1 [Example B71, N-(Cyclopentylacetyl)-L-alanine iso-Butyl Ester] | 62 to 64 °C
14 | C[C@H](NC(=O)Cc1cc(F)cc(F)c1)C(=O)NC1Cc2ccccc2N(Cc2ccccc2)C1=O (stereo partly drawn) [Example 5-6, 1-Benzyl-3-(N′-(3,5-difluorophenylacetyl)-L-alaninyl)amino-1,2,3,4-tetrahydroquinolin-2-one] | 196 to 199 °C
15 | CN1C(=O)C(NC(=O)[C@@H](NC(=O)Cc2cc(F)cc(F)c2)C(C)(C)C)N=C(c2ccccc2)c2ccccc21 (some centres unmarked) | 221 to 222 °C
16 | CCOC(=O)[C@H](C)NC(=O)Cc1cc(F)cc(F)c1 [Example B64, N-[(3,5-Difluorophenyl)acetyl]alanine Ethyl Ester] | 93 to 95 °C
17 | CC1CC(NC(=O)Cc2cc(F)cc(F)c2)C(=O)N(C)c2ccccc21 (centres unmarked) [Example 6-9, 3-(3,5-Difluorophenylacetyl)amino-1,5-dimethyl-1,3,4,5-tetrahydro-2H-1-benzazepin-2-one] | 185 to 187 °C
18 | CC(Nc1ccc(Cl)c(Cl)c1)C(=O)NC1CCCNC(=O)C1 (racemic) [Example 5-31, 3-(N′-(3,4-Dichlorophenyl)-D,L-alaninyl)amino-ε-caprolactam] | 199 °C
19 | C[C@H](NC(=O)Cc1cc(F)cc(F)c1)C(=O)NC1CCCCCNC(=O)C1 (stereo partly drawn) [Example 5-33, 3-(N′-(3,5-Difluorophenylacetyl)-L-alaninyl)amino-8-octanelactam] | > 220 °C
20 | C[C@H](NC(=O)Cc1cc(F)cc(F)c1)C(=O)NC1C(=O)NC(c2ccccn2)c2ccccc21 (stereo partly drawn) [Example 5-37, 4-(N′-(3,5-Difluorophenylacetyl)-L-alaninyl)amino-1-(pyrid-2-yl)-1,2,3,4-tetrahydroisoquinolin-3-one] | 100 °C
21 | C[C@H](NC(=O)Cc1cc(F)cc(F)c1)C(=O)N[C@@H]1CSc2ccccc2N(C)C1=O [Example 6-12, 3-(S)-(N′-(3,5-Difluorophenylacetyl)-L-alaninyl)amino-1-methyl-5-thia-1,3,4,5-tetrahydro-2H-1-benzazepin-2-one] | 156 to 159 °C

Row | SMILES | melting point
22 | C[C@H](NC(=O)C(F)c1cc(F)cc(F)c1)C(=O)NC1N=C(c2ccccc2)c2ccccc2N(C)C1=O (single isomer, unassigned) | 119 to 120 °C
23 | COC(=O)[C@@H](NC(=O)CC1CCCC1)c1ccccc1 [Example B77, N-(Cyclopentylacetyl)-L-phenylglycine Methyl Ester] | 83 to 86 °C
24 | C[C@H](NC(=O)C(O)C1CCCC1)C(=O)NC1C(=O)N(CC(C)(C)C)c2ccccc2N(CC(C)(C)C)C1=O (stereo partly drawn) [Example 8-162, 3-[N′-(Cyclopentyl-α-hydroxyacetyl)-L-alaninyl]amino-2,4-dioxo-1,5-bis-(2,2-dimethylpropyl)-2,3,4,5-tetrahydro-1H-1,5-benzodiazepine] | 119 to 129 °C
25 | C[C@H](NC(=O)Cc1cc(F)cc(F)c1)C(=O)NC1C(=O)N(C)Cc2ccccc21 (stereo partly drawn) [Example 5-14, 4-(N′-(3,5-Difluorophenylacetyl)-L-alaninyl)amino-2-methyl-1,2,3,4-tetrahydroisoquinolin-3-one] | 174 to 175 °C
26 | CC(C)COC(=O)[C@H](C)NC(=O)CC1CCCCC1 [Example B70, N-(Cyclohexylacetyl)-L-alanine iso-Butyl Ester] | 92 to 93 °C
27 | C[C@H](NC(=O)C(O)c1cc(F)cc(F)c1)C(=O)NC1C(=O)N(C)c2ccccc2N(c2ccccc2)C1=O (single isomer, unassigned) | 255 to 256 °C
28 | CC1NC(=O)C(NC(=O)[C@H](C)NC(=O)Cc2cc(F)cc(F)c2)c2ccccc21 (stereo partly drawn) [Example 5-9, 4-(N′-(3,5-Difluorophenylacetyl)-L-alaninyl)amino-1-methyl-1,2,3,4-tetrahydroisoquinolin-3-one] | 205 to 206 °C
29 | C[C@H](NC(=O)Cc1ccccc1)C(=O)NC1CCCNC(=O)C1 (stereo partly drawn) [Example 5-18, 3-(N′-(Phenylacetyl)-L-alaninyl)amino-ε-caprolactam] | 200 to 202 °C
30 | C[C@H](NC(=O)Cc1cc(F)cc(F)c1)C(=O)NC1C(=O)NC(c2cccnc2)c2ccccc21 (stereo partly drawn) [Example 5-38, 4-(N′-(3,5-Difluorophenylacetyl)-L-alaninyl)amino-1-(pyrid-3-yl)-1,2,3,4-tetrahydroisoquinolin-3-one] | 100 to 120 °C
31 | C[C@H](NC(=O)Cc1cc(F)cc(F)c1)C(=O)N[C@H]1COc2ccccc2N(C)C1=O [Example 6-10, 3-(S)-(N′-(3,5-Difluorophenylacetyl)-L-alaninyl)amino-1-methyl-5-oxa-1,3,4,5-tetrahydro-2H-1-benzazepin-2-one] | 110 to 114 °C
32 | CC(C)COC(=O)[C@H](C)NC(=O)CC1=CCCCC1 [Example B72, N-[(Cyclohex-1-enyl)acetyl]-L-alanine iso-Butyl Ester] | 49 to 51 °C
33 | CN1C(=O)C(NC(=O)Cc2cc(F)cc(F)c2)N=C(c2ccccc2)c2ccccc21 (centres unmarked) | 236 to 239 °C
34 | C[C@H](NC(=O)Cc1cc(F)cc(F)c1)C(=O)NC1C(=O)N(Cc2ccccc2)Cc2ccccc21 (stereo partly drawn) [Example 5-8, 4-(N′-(3,5-Difluorophenylacetyl)-L-alaninyl)amino-2-benzyl-1,2,3,4-tetrahydroisoquinolin-3-one] | 144 to 145 °C
35 | C[C@H](NC(=O)Cc1cc(F)cc(F)c1)C(=O)NC1C(=O)NCc2cc(F)ccc21 (single isomer, unassigned) [Example 5-12, 4(N′-(3,5-Difluorophenylacetyl)-L-alaninyl)amino-7-fluoro-1,2,3,4tetrahydroisoquinolin-3-one] | 195 to 200 °C
36 | CC1CC(NC(=O)[C@H](C)NC(=O)Cc2cc(F)cc(F)c2)C(=O)N(C)c2ccccc21 (stereo partly drawn) [Example 6-8, 3-(N′-(3,5-Difluorophenylacetyl)-L-alaninyl)amino-1,5-dimethyl-1,3,4,5-tetrahydro-2H-1-benzazepin-2-one] | 115 to 119 °C
37 | C[C@H](NC(=O)Cc1cc(F)cc(F)c1)C(=O)NC1C(=O)NC(c2ccncc2)c2ccccc21 (stereo partly drawn) [Example 5-39, 4-(N′-(3,5-Difluorophenylacetyl)-L-alaninyl)amino-1-(pyrid-4-yl)-1,2,3,4-tetrahydroisoquinolin-3-one] | 100 °C
38 | CCC(=S)N[C@@H](C)C(=O)NC1N=C(c2ccccc2)c2ccccc2N(C)C1=O (some centres unmarked) | 205 to 206 °C
39 | CCN1C(=O)C(NC(=O)[C@H](C)NC(=O)Cc2cc(F)cc(F)c2)N=C(c2ccccc2)c2ccccc21 (some centres unmarked) | 155 to 158 °C
40 | CC(C)N1C(=O)C(NC(=O)[C@H](C)NC(=O)Cc2cc(F)cc(F)c2)C(=O)N(C(C)C)c2ccccc21 [Example 8-146, 3-[N′-(3,5-Difluorophenylacetyl)-L-alaninyl]amino-2,4-dioxo-1,5-bis-(1-methylethyl)-2,3,4,5-tetrahydro-1H-1,5-benzodiazepine] | 232 to 233 °C
41 | C[C@H](NC(=O)Cc1cc(F)cc(F)c1)C(=O)NC1C(=O)N(C)c2ccccc2N(C)C1=O [Example 8-150, 3-[N′-(3,5-Difluorophenylacetyl)-L-alaninyl]amino-2,4-dioxo-1,5-bis-methyl-2,3,4,5-tetrahydro-1H-1,5-benzodiazepine] | 206 to 207 °C
